Measurements taken from article PMC8126888 (RSC Medicinal Chemistry, 2020).
Where two headings read alike, the source gives them in different places.

How the values were obtained:
[1] = system: Trypanosoma cruzi, Tulahuen CL2, beta-galactosidase strain; assay: microbe, parasite or virus in culture
in vitro [2] = details: human
in vitro [3] = details: human, HepG2 cells
in vitro [4] = details: PAMPA
in vitro [5] = details: human, HFF-1 cells
[6] = system: primary peritoneal mouse macrophages (PMM); assay: cells; details: Macrophage
in vitro [7] = details: human, microsomes
[8] = system: Leishmania infantum MHOM/MA(BE)/67/ITMAP263 intracellular amastigotes; assay: microbe, parasite or virus in culture; details: Macrophage, in Mus musculus
in vitro [9] = details: mouse, microsomes
[10] = system: Leishmania infantum MHOM/MA(BE)/67/ITMAP263 intracellular amastigotes; details: intracellular amastigotes in PMM
[11] = MRC5, read-out: T. cruzi Tulahuen C4 (LacZ) IC50 (uM)
[12] = HPLC, Ascentis Express RP Amide column, pH 7.4, eLogD, experimental
[13] = pH 7.4, HLM CLint (uL/min/mg), human liver microsomes
[14] = read-out: L. Inf. pIC50, from L. infantum intracellular amastigote IC50 (converted)
[15] = read-out: L. infantum MHOM/MA(BE)/67/ITMAP263 intracellular amastigotes IC50 (uM), intracellular amastigotes
[16] = MRC5, read-out: T. cruzi Tulahuen C4 (LacZ) IC50
[17] = pH 7.4, HLM CLint, human liver microsomes
[18] = pH 7.4, MLM CLint, mouse liver microsomes
[19] = read-out: L. infantum MHOM/MA(BE)/67/ITMAP263 intracellular amastigotes IC50, intracellular amastigotes
[20] = HPLC, Ascentis Express RP Amide column, pH 7.4, elog D, HPLC measured log D, pH 7.4
[21] = read-out: PMM pIC50 (converted)
[22] = pH 7.4, Microsome Clint,u Human, Table 2, intrinsic in vitro clearance, liver microsomes
[23] = pH 7.4, Microsome Clint,u Mouse, Table 2, intrinsic in vitro clearance, liver microsomes
[24] = read-out: L. inf. pIC50, intracellular amastigotes in PMM (converted), geometric mean of a minimum of two experiments ± standard error
[25] = pH 7.4, MLM CLint (uL/min/mg), mouse liver microsomes

Row | SMILES | IC50 [1, 11] | CC50 at 3 days (in vitro [2]) | CC50 (in vitro [3]) | Papp (in vitro [4]) | CC50 (in vitro [5]) | chromatographic logD (physchem; [12]) | IC50 ([6]; read-out: PMM IC50 (uM)) | microsomal CLint at 0.5 μM (in vitro [7]; [13]) | IC50 [8, 14] | IC50 [8, 15] | also measured
1 | COc1ccc(OC)c(S(=O)(=O)N(Cc2ccc(F)cc2)Cc2ccc(C#N)cc2)c1 [DNDI0003388088] | 19 µM | > 64 µM | 36.2 µM | 3.57 ×10⁻⁶ cm/s | 51.9 µM | 4.1 | > 64 µM | 87 µL/min/mg | 18.6 µM | 18.6 µM | –
2 | COc1ncc(Br)cc1S(=O)(=O)N(Cc1ccc(F)cc1)Cc1ccc(F)cc1 [DNDI0003369122] | – | > 64 µM | – | – | – | 5.2 | – | – | 14.8 µM | – | IC50 [1, 16]: 7.43 µM; IC50 ([6]; read-out: PMM IC50): > 64 µM; microsomal CLint at 0.5 μM (in vitro [7]; [17]): 95 µL/min/mg; microsomal CLint at 0.5 μM (in vitro [9]; [18]): 469 µL/min/mg; IC50 [8, 19]: 14.8 µM
3 | O=S(=O)(c1cc(F)ccc1F)N(Cc1ccccc1)C(CO)c1ccc(F)cc1 (stereo not shown) [DNDI0003378486] | 13.7 µM | 21.2 µM | 24.4 µM | – | 1.67 µM | – | > 64 µM | – | 35.5 µM | 35.5 µM | –
4 | COc1ccc(CN(Cc2ccc(F)cc2)S(=O)(=O)c2cc(C#N)ccc2OC)cc1 [DNDI0003371172] | 13.2 µM | > 64 µM | 35.3 µM | – | 22.6 µM | – | > 64 µM | – | 2.95 µM | 2.92 µM | –
5 | COc1ccc(OC)c(S(=O)(=O)N(Cc2ccccc2)C2CCCNC2)c1 (stereo not shown) [DNDI0003366131] | – | 58.5 µM | – | – | – | 3.2 | – | – | 29.5 µM | – | IC50 [1, 16]: 31.6 µM; IC50 ([6]; read-out: PMM IC50): > 64 µM; microsomal CLint at 0.5 μM (in vitro [7]; [17]): 347 µL/min/mg; microsomal CLint at 0.5 μM (in vitro [9]; [18]): 96 µL/min/mg; IC50 [8, 19]: 29.5 µM
6 | CCN(Cc1ccccc1)S(=O)(=O)c1cc(OC)ccc1OC [Compound 38] | – | – | – | – | – | – | – | – | – | – | L. inf. pIC50 ([10]; geometric mean of a minimum of two experiments ± standard error): 5.60 ± 0.03; chromatographic logD (physchem; [20]): 3.8; chromatographic logD (physchem; pH 7.4, elog D, HPLC measured log D, pH 7.4): 3.5; IC50 [6, 21]: > 64.6 µM; microsomal CLint at 0.5 μM (in vitro [7]; [22]): 534 µL/min/mg; microsomal CLint at 0.5 μM (in vitro [9]; [23]): 3500 µL/min/mg; IC50 [8, 24]: 2.09 µM
7 | O=S1(=O)c2cc(F)ccc2OC(c2ccc(F)cc2)CN1Cc1ccccc1 (stereo not shown) [DNDI0003371160] | – | > 64 µM | – | – | – | 4.9 | – | – | 20.4 µM | – | IC50 [1, 16]: 7.97 µM; IC50 ([6]; read-out: PMM IC50): > 64 µM; microsomal CLint at 0.5 μM (in vitro [7]; [17]): 398 µL/min/mg; microsomal CLint at 0.5 μM (in vitro [9]; [18]): 323 µL/min/mg; IC50 [8, 19]: 20.2 µM
8 | COCCN(Cc1ccc(F)cc1)S(=O)(=O)c1cc(C(=O)N2CCOCC2)ccc1OC [DNDI0003392125] | > 64 µM | 22.7 µM | – | 15.4 ×10⁻⁶ cm/s | – | – | > 64 µM | 28 µL/min/mg | 22.4 µM | 22.5 µM | microsomal CLint at 0.5 μM (in vitro [9]; [25]): 60 µL/min/mg
9 | COCCN(Cc1ccccc1)S(=O)(=O)c1cc(C(=O)NC2COC2)ccc1OC [DNDI0003392129] | > 64 µM | > 64 µM | – | 4.72 ×10⁻⁶ cm/s | – | 2.7 | > 64 µM | 39 µL/min/mg | 15.5 µM | 15.5 µM | microsomal CLint at 0.5 μM (in vitro [9]; [25]): 114 µL/min/mg
10 | COc1ccc(C#N)cc1S(=O)(=O)N(Cc1ccc(C(F)(F)F)nc1)Cc1ccc(C(F)(F)F)nc1 [Compound 50] | – | – | – | – | – | – | – | – | – | – | potency against L. inf. in words [10]: inactive; chromatographic logD (physchem; [20]): 3.8; IC50 [6, 21]: > 64.6 µM; microsomal CLint at 0.5 μM (in vitro [7]; [22]): < 23 µL/min/mg; microsomal CLint at 0.5 h, 0.5 µM (in vitro [9]; [23]): 95 µL/min/mg; IC50 [8, 24]: 38.9 µM
11 | N#Cc1ccccc1S(=O)(=O)N(Cc1ccccc1)Cc1ccccc1 [DNDI0003389641] | 18.4 µM | > 64 µM | > 64 µM | 1.66 ×10⁻⁶ cm/s | 1.28 µM | 4.2 | > 64 µM | 577 µL/min/mg | 11.2 µM | 11.3 µM | –
12 | COc1ccc(CN(Cc2ccc(F)cc2)S(=O)(=O)c2cc(F)ccc2F)cc1 [DNDI0003388150] | 54.4 µM | > 64 µM | > 64 µM | – | > 64 µM | – | > 64 µM | – | 57.5 µM | 57 µM | –
13 | CNC(=O)c1ccc(OC)c(S(=O)(=O)N(CCOC)Cc2ccccc2)c1 [DNDI0003392128] | > 64 µM | > 64 µM | – | 7.61 ×10⁻⁶ cm/s | – | 2.7 | > 64 µM | 23 µL/min/mg | 28.2 µM | 28.1 µM | microsomal CLint at 0.5 μM (in vitro [9]; [25]): 393 µL/min/mg
14 | O=[N+]([O-])c1ccc(Cl)cc1S(=O)(=O)N(Cc1ccccc1)Cc1ccc(F)cc1 [DNDI0003389123] | 26.4 µM | > 64 µM | > 64 µM | – | > 64 µM | 5.1 | > 64 µM | – | > 64 µM | > 64 µM | –
